The source of these data is patent US5126258A (priority 1988, dated 1992).

In series [1] the target is monoclonal antibody P3 6D4. The series is described as follows: Kinetics and inhibition of catalytic ester hydrolysis by monoclonal antibody P3 6D4, spectrophotometric at 245 nm. The settings on record: pH 8.0, figure = Ki × 10^7, read-out: Ki. It is filed as biochemical, mouse. On the procedure:
FIG. 4 illustrates a Lineweaver-Burk plot for the hydrolysis of Compound 7 by anti-Compound 4 monoclonal antibody from hybridoma P3 6D4. Velocities were determined spectrophotometrically by measuring initial rates during the first linear portion of the reaction as described with reference to Table 2. The substrate concentrations were corrected for amounts consumed during initial equilibration. ( ) No inhibitor present. ( ) Inhibited by 50 nM phosphonate (Compound 3). ( ) Inhibited by 100 nM phosphonate (Compound 3).
In particular, an exemplary monoclonal receptor was produced by the standard hybridoma technology of Kohler et al., Nature, 256, 495 (1975). Specifically, female 129G1X^+ mice were immunized by intraperitoneal injection with an inoculum of 100 micrograms of conjugate (e.g., Compound 4i bound to KLH) in 300 microliters of a 1:1 mixture of phosphate buffered saline (PBS) pH 7.4 and complete Freund's adjuvant. Two weeks later, the mice were again injected in a like manner with 50 micrograms of the foregoing conjugate in 300 microliters of a 1:1 mixture of PBS (pH 7.4) and 10 mg/ml alum. After an additional eight weeks, the mice were immunized intravenously with 50 micrograms of the conjugate in 200 microliters of PBS (pH 7.4). The spleens were removed from the mice 4 days later, and the spleen cells were fused to myeloma cells.
Reaction kinetics were measured spectrophotometrically by following the absorption change at 245 nanometers. […] Kinetic parameters obtained with these substrates are shown in Table 2 along with the inhibition constants obtained with phosphonate (Compound 3). Under these conditions, the acceleration above the background rate is about 960-fold for Compound 7 and about 200-fold for Compound 8 (corrected for the background hydrolysis rate).
*The kinetic parameters shown in Table 2 are for the hydrolysis of esters
(Compounds 7 and 8) by monoclonal antibody P3 6D4. A PerkinElmer lambda 4
spectrophotometer, equipped with thermostatted cell holder, was used to
measure absorption changes at 245 nm. Cells containing the substrate at
concentrations of 0.5 to 50 micromolar in phosphate buffer (50 mM, pH 8.0
were preequilibrated at 25 degrees C. The concentration of active IgG in
stock solution was found by reacting with the coumarin ester (Compound 5)
and measuring the yield of hydroxycoumarin by fluorescence. The kinetic
run was initiated by addition of an aliquot of the antibody stock solutio
(in 50 mM phosphate buffer, pH 8.0) calculated to give 100 nM IgG. The
mixture was allowed to equilibrate for 2 to 3 minutes and the rate was
then measured during the subsequent 10 minutes. The absorption change for
complete hydrolysis was determined by treatment with esterase. Kinetic
parameters were obtained from L ineweaverBurk plots (see FIG. 4).
Inhibition constants were determined from a plot of the slopes with at
least four inhibitor concentrations of Compound 3. The data were analyzed

Series [2] in a line: Metal chelate formation constants, potentiometric titration. It is filed as physicochemical. The settings on record: titrimetric analysis, estimated; read-out: formation constants of 1:1 chelates with divalent metal ions. An excerpt:
Such a possibility was investigated using a dipicolinic acid halide to derivatize the ortho aminomethyl group of a phenolic structure (see Compounds 3 and 4 of FIG. 2). The dealkylation of the phosphonyl and acyl esters of this adduct exposes the potential ligands for the formation of a metal chelate. The intrinsic stability of complexes of this ligand, however, determined with divalent transition metals such as cobalt, zinc and copper, are probably too low to expect these chelates to maintain their integrity in the immunization process. In fact, the formation constants of 1:1 chelates of Compound 3 with the divalent metal ions are in the range of 10^4 -10^5 M^-1 as estimated by titrimetric analysis.
Determination of pKa and stability constants K:
All determinations of pKa and stability constants (K) are performed according to the method of Martell. This method consisted of potentiometric titration of the particular compound (at a concentration of about 1.4 mM) in the absence of and in the presence of the metal ion being investigated. The ionic strength was maintained constant using 0.1M NaClO4 as a supporting electrolyte. All measurements were carried out under nitrogen at 25 degrees C plus or minus 0.01 degrees C.

For series [3] the following is noted: leaving group alcohol; source not stated; cited from earlier work.

Where two headings read alike, the source gives them in different places.

Consider `CCOP(=O)(Cc1ccc(NC(=O)C(F)(F)F)cc1)Oc1ccc(NC(C)=O)cc1CNC(=O)c1cccc(C(=O)OC)n1` (stereo not shown) [Compound 3], for which the Ki (commonly a dissociation constant, usually derived from enzyme kinetics or from competition with a known ligand) in series [1] (inhibitor Compound 3, substrate Compound 7 (table line 7)) is 160 nM; in series [1] (inhibitor Compound 3, substrate Compound 8 (table line 8)), 65 nM. Moreover, in series [2], the Kd is 10000 to 100000 nM.
Turning to `Oc1cccc2ccccc12` [alpha-naphthol], the pKa result in series [3] is listed as “about 9.3”.
